This note sets out measurements from patent US20100183613A1, “METHODS OF USING MEVALONATE DECARBOXYLASE (MVD) ANTAGONISTS” (NOVARTIS AG, priority 2008, published 2010).

The nature of data set [1]: Cell viability of infected K562 cells by Celltiter Glo. It counts as cell-based, human. The following applies: human, K562 cells infected with dengue NGC virus, K562 infection, same range of inhibitor concentrations, read-out: CC50 (concentration of 50% cell death). The method, then:
(§1) For compound testing, K562 infection system was used. […] The cell viability is measured by Celltiter Glo.
(§2) To determine the EC50 (effective concentration of 50% inhibition of virus growth) and the cytotoxity CC50 (concentration of 50% cell death), a dose response curve covering at least four different concentrations was done in K562 infection. The decrease of the percentage of the dengue positive cells was then plotted against the concentrations of inhibitors, using a nonlinear regression analysis to obtain the EC50. CC50 was calculated using the same method using the cell viability over the same range of inhibitor concentrations.
A general note: ATP-based viability assays read luminescence as a measure of living cells.

For data set [2], the system named is Dengue NGC virus. The data set is described as follows: Dengue NGC live virus infection in K562 cells, FACS (anti-E/anti-NS1 double positive cells). The following applies: for EC50: read-out: EC50 (effective concentration of 50% inhibition of virus growth); for percent Dengue positive cells (E and NS1 double positive): K562, Dengue NGC, 48 hours, 4.8% positive without treatment; for inhibition of viral growth / effect on infection: K562 infection assay. It counts as cell-based. The protocol: as §1, §2

In the next data set the test system is K562 cells. The data set is described as follows: Cell viability of infected K562 cells by Celltiter Glo. It counts as cell-based, human. The following applies: for CC50: K562 infection, same range of inhibitor concentrations, read-out: CC50 (concentration of 50% cell death). The method, then:
as §1, §2

The subject of data set [3] is dengue strain MY10340. The data set is described as follows: Live virus titer in PBMC infection by plaque assay. It is filed as cell-based, Dengue virus. The settings on record: human PBMC, two days, increasing concentration.
Method: PBMC (Peripheral Blood Mononuclear Cell) were prepared from buffy coat from healthy donors using ficoll gradient. […] For virus titer analysis, the level of live virus was determined by plaque assay in BHK-21 cells (ATCC) in triplicate.
For compound testing, K562 infection system was used. 50,000 K562 cells were plated in 96 well in 100 ul and infected the second day with 1 m.o.i of NGC virus for two days. Compounds were added together with the virus and the viral growth was measured by FACS with two antibodies, the anti-Dengue Envelope protein antibody (ATCC) (26) conjugated to Alexa 680 (Invitrogen) and the anti NS1 antibody (ATCC) conjugated to Alexa 488. The cell viability is measured by Celltiter Glo. The supernatant after infection were collected for plaque assay for live virus titer. For PBMC infection, conditions were the same as for K562 infection except 500,000 total cells were plated and an 1:10,000 diluted dengue IgG positive serum was added to the infection.
Data set [4] deals with dengue strain MY10340. As to the kind of experiment: Dengue infection of human PBMCs, FACS. It counts as cell-based, Dengue virus. The following applies: human PBMC, two days, enhancing antibodies, increasing concentration. The method, then:
as §1
Statins are a safe and widely used drug for the treatment of hypercholesterolemia (12). The toxicity observed in K562 cells could be due to the specific effect of Statins in a cancer cell line (1,22). For avoiding the toxicity in cancer or transformed cell lines, health donors' PBMC were collected, and tested the effect of statin in PBMC infection was tested. PBMCs were infected with a clinically isolated dengue strain MY10340 for two days in the presence of enhancing antibodies from dengue positive plasma. The infection was assessed by FACS and plaque assay as for K562 infection.

The subject of data set [5] is Dengue NGC virus. The data set is described as follows: Plaque assay of supernatant after K562 infection. The following applies: infected K562 cells, 48 hours, 0.1 μM and 10 μM. It counts as cell-based. The method, then:
The human lung-epithelial carcinoma A549 cell-line and hematopoetic cell line K562 are from ATCC and cultured according to instruction. PBMC (Peripheral Blood Mononuclear Cell) were prepared from buffy coat from healthy donors using ficoll gradient. The A549 dengue NGC replicon cells used for the work contains non-infectious, self replicating Dengue virus with a Renilla luciferase reporter under puromycin selection (24). Cells were cultured in F12 (Hams) medium (Invitrogen, Carlsbad, Calif.) supplemented with 10% fetal bovine serum (FBS) and puromycin (10-50 μg/ml). Cells were assayed in F12 medium supplement with 2% FBS without puromycin. Dengue NGC virus (GenBank number M29095) and the Malaysian clinical isolates MY10340 (from Shamala Devi, University of Malaya, Malaysia) were propagated in insect cells C6/36 (ATCC). For virus titer analysis, the level of live virus was determined by plaque assay in BHK-21 cells (ATCC) in triplicate.
as §1

Where [6] appears, read: K562 cells, 1 m.o.i NGC virus, two days, decrease of percentage of dengue positive cells by FACS.

Entries after “also recorded” stand apart in the source; their conditions may differ. Where two headings read alike, the source gives them in different places.

On to `CC(C)n1c(/C=C/C(O)CC(O)CC(=O)O)c(-c2ccc(F)cc2)c2ccccc21` (stereo not drawn) [Fluvastatin], for which, in data set [1], the CC50 at 2 days worked out at 48.8 µM. Further, in the data set on Dengue NGC virus [2] (Dengue virus, K562, 48 h), the EC50 is more than 50 µM.

Take `CC(C)C[C@H](NC(=O)c1ccc(NCc2cnc[nH]2)cc1-c1cccc2ccccc12)C(=O)O` [GGTI 2133]: in the data set on K562 cells, the CC50 was more than 50 µM. Further, in the data set on Dengue NGC virus [2] (setting [6]), the EC50 was more than 50 µM.

With `CC[C@H](C)C(=O)O[C@H]1C[C@@H](C)C=C2C=C[C@H](C)[C@H](CC[C@@H]3C[C@@H](O)CC(=O)O3)[C@H]21` [Lovastatin], in data set [1], the CC50 at 2 days came out at 46.8 µM. Moreover, in the data set with dengue strain MY10340 [3], the virus titer entry was “decreased”. Also, in the data set with Dengue NGC virus [2] (48 h, K562 cells, 1 m.o.i NGC virus, two days, decrease of percentage of dengue positive cells by FACS), the EC50 was more than 50 µM. In the data set on dengue strain MY10340 [4], the “percentage of infected cells” value was “decreased”.

In the case of `C=C(CC[C@]12O[C@H](C(=O)O)[C@@](O)(C(=O)O)[C@](C(=O)O)(O1)[C@H](OC(=O)/C=C/[C@@H](C)C[C@@H](C)CC)[C@H]2O)[C@@H](OC(C)=O)[C@H](C)Cc1ccccc1` [Zaragozic Acid, Zaragozic acid A], in the data set with K562 cells (K562 cells, dose range, 48 hours, listed as ZGA), the “effect on cell viability / cytotoxicity” value is listed as “no significant cytotoxicity; also recorded: no effect”. In addition, the CC50 in the data set with K562 cells is more than 50 µM. Further, the “fold less plaque than cells treated with DMSO alone” value with Dengue NGC virus [5] is given as 2-6 fold. Also, the “percent Dengue positive cells (E and NS1 double positive)” value with Dengue NGC virus [2] (0.1 μM ZGA) was 2.8%; in the data set with Dengue NGC virus [2] (10 μM ZGA), 0.6%. Besides, in the data set with Dengue NGC virus [2] (setting [6]), the EC50 amounted to 8.3 µM. Further, the “inhibition of viral growth / effect on infection” value with Dengue NGC virus [2] is “significantly inhibited”.

Hymeglusin: in the data set on K562 cells, the CC50 is approximately 50 µM. Also, in the data set with Dengue NGC virus [2] (setting [6]), the EC50 was found to be 4.5 µM. The “inhibition of viral growth / effect on infection” value in the data set with Dengue NGC virus [2] is on record as “significantly inhibited”.
